Source: patent US7192746B2, “α-Isomaltosyltransferase, process for producing the same and use thereof” (Kabushiki Kaisha Hayashibara Seibutsu Kagaku Kenkyujo, priority 2000, dated 2007)

Key:
Test in all cases: Specificity to transferring acceptor
Assay type in all cases: biochemical
Design in all cases: key: −: no saccharide transferred product was formed; ±: a saccharide-transferred product formed in an amount of less than one percent to the total sugars; +: a saccharide-transferred product was formed in an amount of over one percent but below 10% to the total sugars; ++: a saccharide-transferred product was formed in an amount of over 10% to the total sugars
[1] = tested on: α-isomaltosyl-transferring enzyme from Bacillus globisporus C9; conditions: panose as saccharide donor, 10 units/g substrate, 3.2% (w/v), 30° C., pH 6.0, 24 hours
Experimental: (§1) Saccharides were tested as follows to examine whether they can be used as transferring acceptors for the α-isomaltosyl-transferring enzyme of the present invention. A solution of D-glucose, D-xylose, L-xylose, D-galactose, D-fructose, D-mannose, D-arabinose, D-fucose, L-sorbose, L-rhamnose, methyl-α-glucoside (or methyl-α-glucopyranoside), methyl-β-glucoside (or methyl-β-glucopyranoside), N-acetyl-D-glucosamine, D-ribose, L-ribose, D-psicose, sorbitol, xylitol, mannitol, arabitol, ribitol, erythritol, maltose, maltotriose, maltotetraose, maltopentaose, isomaltose, isomaltotriose, α,α-trehalose, α,β-trehalose, kojibiose, nigerose, cellobiose, gentibiose, isopanose, maltitol, maltotriitol, lactose, sucrose, erlose, isomaltosylglucoside, α-cyclodextrin, β-cyclodextrin, γ-cyclodextrin, or L-ascorbic acid was prepared. To each solution was added panose as a saccharide donor to give an equal concentration, admixed with 10 units/g substrate of a purified specimen of either α-isomaltosyl-transferring enzyme from Bacillus globisporus C9 obtained by the method in Experiment 4, Bacillus globisporus C11 obtained by the method in Experiment 7, Bacillus globisporus N75 obtained by the method in Experiment 11, or Arthrobacter ramosus S1 obtained by the method in Experiment 15, or a partially purified specimen of α-isomaltosyl-transferring enzyme from Arthrobacter globiformis A19 obtained by the method in Experiment 18, followed by adjusting the saccharide concentration to 3.2% (w/v). The mixtures thus obtained were enzymatically reacted at 30° C. and Ph 6.0 for 24 hours. The saccharide composition of the resulting reaction mixtures were analyzed on gas chromatography (abbreviated as “GLC” hereinafter) for monosaccharides and disaccharides as testing saccharides, and on HPLC for tri- or higher-saccharides as testing saccharides to confirm whether these saccharides can be used as transferring acceptors for the above enzymes with an index of the positive or negative formation of a saccharide transferred product. In performing GLC, the following apparatuses and conditions were used: GLC apparatus, “GC-16A” commercialized by Shimadzu Corporation, Tokyo, Japan; column, a stainless-steel column, 3 mm in diameter and 2 m in length, packed with 2% “SILICONE OV-17/[…]”, commercialized by GL Sciences Inc., Tokyo, Japan; carrier gas, nitrogen gas at a flow rate of 40 ml/min under temperature conditions of increasing from 160° C. to 320° C. at an increasing temperature rate of 7.5° C./min; and detection, a hydrogen flame ionization detector. In the case of HPLC analysis, the apparatuses and conditions used were: HPLC apparatus, “CCPD” commercialized by Tosoh Corporation, Tokyo, Japan; column, “ODS-AQ-303” commercialized by YMC Co., Ltd., Tokyo, Japan; eluent, water at a flow rate of 0.5 ml/min; and detection, a differential refractometer.

[2] = tested on: α-isomaltosyl-transferring enzyme from Bacillus globisporus C11; conditions: panose as saccharide donor, 10 units/g substrate, 3.2% (w/v), 30° C., pH 6.0, 24 hours
Experimental: as §1

[3] = tested on: α-isomaltosyl-transferring enzyme from Arthrobacter globiformis A19; conditions: partially purified enzyme, panose as saccharide donor, 10 units/g substrate, 3.2% (w/v), 30° C., pH 6.0, 24 hours
Experimental: as §1

[4] = tested on: α-isomaltosyl-transferring enzyme from Arthrobacter ramosus S1; conditions: panose as saccharide donor, 10 units/g substrate, 3.2% (w/v), 30° C., pH 6.0, 24 hours
Experimental: as §1

[5] = tested on: α-isomaltosyl-transferring enzyme from Bacillus globisporus N75; conditions: panose as saccharide donor, 10 units/g substrate, 3.2% (w/v), 30° C., pH 6.0, 24 hours
Experimental: as §1

| Structure (SMILES) | Product of transferring reaction, Enzyme of Strain C9 [1] | Product of transferring reaction, Enzyme of Strain C11 [2] | Product of transferring reaction, Enzyme of Stain A19 [3] | Product of transferring reaction, Enzyme of Strain S1 [4] | Product of transferring reaction, Enzyme of Strain N75 [5] |
| --- | --- | --- | --- | --- | --- |
| OC[C@@H](O)C(O)[C@H](O)CO [Arabitol, arabitol] | − | − | − | ± (a saccharide-transferred product formed in an amount of less than one percent to the total sugars) | − |
| O=C[C@@H](O)[C@H](O)[C@H](O)CO [D-Arabinose, D-arabinose] | ± (a saccharide-transferred product formed in an amount of less than one percent to the total sugars) | ± (a saccharide-transferred product formed in an amount of less than one percent to the total sugars) | ± (a saccharide-transferred product formed in an amount of less than one percent to the total sugars) | + (a saccharide-transferred product was formed in an amount of over one percent but below 10% to the total sugars) | ± (a saccharide-transferred product formed in an amount of less than one percent to the total sugars) |
| O=C(CO)[C@@H](O)[C@H](O)[C@H](O)CO [D-Fructose, D-fructose] | − | − | ± (a saccharide-transferred product formed in an amount of less than one percent to the total sugars) | + (a saccharide-transferred product was formed in an amount of over one percent but below 10% to the total sugars) | − |
| C[C@@H](O)[C@H](O)[C@H](O)[C@@H](O)C=O [D-Fucose, D-fucose] | ± (a saccharide-transferred product formed in an amount of less than one percent to the total sugars) | ± (a saccharide-transferred product formed in an amount of less than one percent to the total sugars) | ± (a saccharide-transferred product formed in an amount of less than one percent to the total sugars) | + (a saccharide-transferred product was formed in an amount of over one percent but below 10% to the total sugars) | ± (a saccharide-transferred product formed in an amount of less than one percent to the total sugars) |
| O=C[C@H](O)[C@@H](O)[C@@H](O)[C@H](O)CO [D-Galactose, D-galactose] | − | − | ± (a saccharide-transferred product formed in an amount of less than one percent to the total sugars) | + (a saccharide-transferred product was formed in an amount of over one percent but below 10% to the total sugars) | − |
| O=C[C@H](O)[C@@H](O)[C@H](O)[C@H](O)CO [D-Glucose, D-glucose] | ++ (a saccharide-transferred product was formed in an amount of over 10% to the total sugars) | ++ (a saccharide-transferred product was formed in an amount of over 10% to the total sugars) | ++ (a saccharide-transferred product was formed in an amount of over 10% to the total sugars) | ++ (a saccharide-transferred product was formed in an amount of over 10% to the total sugars) | ++ (a saccharide-transferred product was formed in an amount of over 10% to the total sugars) |
| O=C[C@@H](O)[C@@H](O)[C@H](O)[C@H](O)CO [D-Mannose, D-mannose] | − | − | − | − | − |
| O=C(CO)[C@H](O)[C@H](O)[C@H](O)CO [D-Psicose, D-psicose] | − | − | ± (a saccharide-transferred product formed in an amount of less than one percent to the total sugars) | ± (a saccharide-transferred product formed in an amount of less than one percent to the total sugars) | − |
| O=C[C@H](O)[C@H](O)[C@H](O)CO [D-Ribose, D-ribose] | − | − | ± (a saccharide-transferred product formed in an amount of less than one percent to the total sugars) | + (a saccharide-transferred product was formed in an amount of over one percent but below 10% to the total sugars) | − |
| O=C[C@H](O)[C@@H](O)[C@H](O)CO [D-Xylose, D-xylose] | ++ (a saccharide-transferred product was formed in an amount of over 10% to the total sugars) | ++ (a saccharide-transferred product was formed in an amount of over 10% to the total sugars) | ++ (a saccharide-transferred product was formed in an amount of over 10% to the total sugars) | ++ (a saccharide-transferred product was formed in an amount of over 10% to the total sugars) | ++ (a saccharide-transferred product was formed in an amount of over 10% to the total sugars) |
| OC[C@H]1O[C@@](CO)(O[C@H]2O[C@H](CO)[C@@H](O[C@H]3O[C@H](CO)[C@@H](O)[C@H](O)[C@H]3O)[C@H](O)[C@H]2O)[C@@H](O)[C@@H]1O [Erlose, erlose] | + (a saccharide-transferred product was formed in an amount of over one percent but below 10% to the total sugars) | + (a saccharide-transferred product was formed in an amount of over one percent but below 10% to the total sugars) | + (a saccharide-transferred product was formed in an amount of over one percent but below 10% to the total sugars) | + (a saccharide-transferred product was formed in an amount of over one percent but below 10% to the total sugars) | + (a saccharide-transferred product was formed in an amount of over one percent but below 10% to the total sugars) |
